Experimental findings from patent publication US7528138B2, “Pyrazolo[1,5-a]pyrimidines useful as inhibitors of protein kinases” (Vertex Pharmaceuticals Incorporated, priority 2004, dated 2009) are described below.

The target of one experiment is T1, Itk (Homo sapiens, UniProt Q08881).
T1 sequence (Q08881 1-620): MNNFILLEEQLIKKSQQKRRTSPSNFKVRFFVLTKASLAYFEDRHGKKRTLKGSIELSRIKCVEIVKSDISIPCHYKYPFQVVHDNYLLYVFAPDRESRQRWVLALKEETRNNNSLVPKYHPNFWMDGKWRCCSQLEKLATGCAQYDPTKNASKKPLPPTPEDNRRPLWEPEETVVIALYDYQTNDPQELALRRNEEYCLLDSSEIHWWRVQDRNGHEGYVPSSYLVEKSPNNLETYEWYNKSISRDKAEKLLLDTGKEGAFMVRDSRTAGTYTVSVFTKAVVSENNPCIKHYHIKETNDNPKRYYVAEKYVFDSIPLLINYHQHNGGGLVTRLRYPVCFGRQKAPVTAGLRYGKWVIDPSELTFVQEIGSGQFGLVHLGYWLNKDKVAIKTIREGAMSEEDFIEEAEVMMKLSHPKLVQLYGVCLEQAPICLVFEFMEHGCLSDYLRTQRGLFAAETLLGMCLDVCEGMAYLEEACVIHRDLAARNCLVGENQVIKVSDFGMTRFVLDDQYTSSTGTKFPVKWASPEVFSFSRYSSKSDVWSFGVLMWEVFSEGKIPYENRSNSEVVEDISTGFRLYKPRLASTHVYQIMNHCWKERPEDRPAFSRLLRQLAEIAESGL
Put plainly: ITK Inhibition Assay (Radiometric), radioactive-phosphate incorporation. The note with it: enzyme inhibition data (Ki), Table 11; radiometric or UV assay not stated. The format is biochemical. In outline:
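Radiometric 33P incorporation into SAM68 peptide (D332-443) with filter capture and scintillation counting; 10 min pre-incubation then 10 min reaction at 25° C. IC50 format: 30 nM Itk, 15 μM ATP, 2 μM peptide, HEPES pH 7.5. Ki(app) format: 50 nM Itk, 7.5 μM ATP, 3 μM peptide, MOPS pH 7.0.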

The target of a further experiment is T2, Aurora-2 (Homo sapiens, UniProt O14965).
T2 sequence (O14965 1-403): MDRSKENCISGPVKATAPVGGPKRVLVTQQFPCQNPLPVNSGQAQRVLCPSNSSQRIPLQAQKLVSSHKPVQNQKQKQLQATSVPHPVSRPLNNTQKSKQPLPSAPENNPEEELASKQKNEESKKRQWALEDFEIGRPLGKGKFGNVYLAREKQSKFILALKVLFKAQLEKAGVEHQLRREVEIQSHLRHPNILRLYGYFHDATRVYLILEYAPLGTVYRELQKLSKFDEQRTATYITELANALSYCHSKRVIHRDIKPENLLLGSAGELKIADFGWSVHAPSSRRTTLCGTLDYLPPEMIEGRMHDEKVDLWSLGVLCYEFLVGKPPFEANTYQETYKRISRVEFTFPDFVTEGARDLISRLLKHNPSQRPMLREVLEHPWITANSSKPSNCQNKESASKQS
Put plainly: Aurora-A (Aurora-2) Inhibition Assay, coupled enzyme assay. The format is biochemical. The note with it: enzyme inhibition data (Ki), Table 11; read-out: AurA Ki. Here is the method:
Compounds are screened for their ability to inhibit Aurora-2 using a standard coupled enzyme assay (Fox et al., Protein Sci., (1998) 7, 2249). Assays are carried out in a mixture of 100 mM Hepes (pH7.5), 10 mM MgCl2, 1 mM DTT, 25 mM NaCl, 2.5 mM phosphoenolpyruvate, 300 μM NADH, 30 μg/ml pyruvate kinase and 10 μg/ml lactate dehydrogenase. Final substrate concentrations in the assay are 400 μM ATP (Sigma Chemicals) and 570 μM peptide (Kemptide, American Peptide, Sunnyvale, Calif.). Assays are carried out at 30° C. and in the presence of 40 nM Aurora-2.
An assay stock buffer solution is prepared containing all of the reagents listed above, with the exception of Aurora-2 and the test compound of interest. 55 μl of the stock solution is placed in a 96 well plate followed by addition of 2 μl of DMSO stock containing serial dilutions of the test compound (typically starting from a final concentration of 7.5 μM). The plate is preincubated for 10 minutes at 30° C. and the reaction initiated by addition of 10 μl of Aurora-2. Initial reaction rates are determined with a Molecular Devices SpectraMax Plus plate reader over a 10 minute time course. IC50 and Ki data are calculated from non-linear regression analysis using the Prism software package (GraphPad Prism version 3.0cx for Macintosh, GraphPad Software, San Diego Calif., USA).

For orientation: Ki means the equilibrium dissociation constant of an inhibitor or competing ligand from its target.

Some results are limits rather than exact numbers.

For `COc1ccccc1-c1cnc2c(-c3ccccn3)c(N)nn2c1` [Compound V-14], the Ki at Itk and on Aurora-2 was 500 to 5000 nM throughout.

In the case of `CS(=O)(=O)Nc1cccc(-c2cnc3c(-c4ccccn4)c(N)nn3c2)c1` [Compound V-18], the Ki on Itk and at Aurora-2 was below 500 nM throughout.

Turning to `Nc1nn2cc(-c3ccc(C(=O)NC4CCCO4)cn3)cnc2c1-c1ccccn1` (stereo not shown) [Compound V-96], the Ki at Itk and on Aurora-2 was 500 to 5000 nM each time.

As for `CC(C)CN(C)C(=O)c1ccc(-c2cnc3c(-c4ccccn4)c(N)nn3c2)nc1` [Compound V-97], the Ki at Itk and on Aurora-2 was below 500 nM in each case.

On to `CCN(CC)C(=O)c1ccc(-c2cnc3c(-c4ccccn4)c(N)nn3c2)nc1` [Compound V-98], for which the inhibitory constant (Ki) on Itk and at Aurora-2 was below 500 nM each time.

As for `CN1CCC(N(C)C(=O)c2cccc(-c3cnc4c(-c5ccccn5)c(N)nn4c3)n2)CC1` [Compound V-101], the inhibitory constant (Ki) on Itk and on Aurora-2 was 500 to 5000 nM each time.

Take `CCN1CCN(C(=O)c2cccc(-c3cnc4c(-c5ccccn5)c(N)nn4c3)n2)CC1` [Compound V-102]: the Ki at Itk and on Aurora-2 was 500 to 5000 nM in each case.

Consider `Nc1nn2cc(-c3cccc(C(=O)N4CCC(N)CC4)n3)cnc2c1-c1ccccn1` [Compound V-104], for which the Ki on Itk and at Aurora-2 was 500 to 5000 nM throughout.

Regarding `C#CCN(C)C(=O)c1cccc(-c2cnc3c(-c4ccccn4)c(N)nn3c2)n1` [Compound V-106], the Ki on Itk and at Aurora-2 was 500 to 5000 nM throughout.

For `Nc1nn2cc(-c3cccc(C(=O)N4CCCC4CO)n3)cnc2c1-c1ccccn1` (stereo not shown) [Compound V-112], the Ki at Itk and on Aurora-2 was 500 to 5000 nM throughout.

For the compound `CN(CCC#N)C(=O)c1cccc(-c2cnc3c(-c4ccccn4)c(N)nn3c2)n1` [Compound V-114], the Ki on Itk and at Aurora-2 was 500 to 5000 nM throughout.

For `CCN(C)C(=O)c1cccc(-c2cnc3c(-c4ccccn4)c(N)nn3c2)n1` [Compound V-115], the Ki at Itk and at Aurora-2 was 500 to 5000 nM throughout.

Regarding `CCN(CCC#N)C(=O)c1cccc(-c2cnc3c(-c4ccccn4)c(N)nn3c2)n1` [Compound V-116], the Ki at Itk and on Aurora-2 was 500 to 5000 nM each time.

On to `CCN(CC)CCN(C)C(=O)c1cccc(-c2cnc3c(-c4ccccn4)c(N)nn3c2)n1` [Compound V-124], for which the Ki at Itk and on Aurora-2 was 500 to 5000 nM in each case.

Take `CCN(CC)C(=O)c1cccc(-c2cnc3c(-c4ccccn4)c(N)nn3c2)n1` [Compound V-127]: the Ki at Itk and on Aurora-2 was 500 to 5000 nM in each case.

For `COCCCN1CCN(C(=O)c2ccc(-c3cnc4c(-c5ccccn5)c(N)nn4c3)nc2)CC1` [Compound V-129], the Ki on Itk and at Aurora-2 was below 500 nM each time.

For `CN(CCCN)C(=O)c1ccc(-c2cnc3c(-c4ccccn4)c(N)nn3c2)nc1` [Compound V-130], the Ki at Itk is below 500 nM; on Aurora-2, 500 to 5000 nM.

Turning to `Cc1ccc(-c2c(N)nn3cc(-c4ccncc4)cnc23)nc1` [Compound V-132], the Ki at Itk and on Aurora-2 was 500 to 5000 nM in each case.

In the case of `Cc1ccnc(-c2c(N)nn3cc(-c4ccncc4)cnc23)c1` [Compound V-133], the values for the Ki on Itk and on Aurora-2 were 500 to 5000 nM and below 500 nM, respectively.

In the case of `Nc1nn2cc(-c3ccncc3)cnc2c1-c1ncccc1OCc1ccccc1` [Compound V-134], the Ki on Itk and on Aurora-2 was 500 to 5000 nM each time.

Regarding `Cc1cccnc1-c1c(N)nn2cc(-c3ccncc3)cnc12` [Compound V-135], the Ki on Itk and at Aurora-2 was 500 to 5000 nM each time.

`COC(=O)C1CCCN1C(=O)c1cccc(-c2cnc3c(-c4ccccn4)c(N)nn3c2)n1` (stereo not shown) [Compound V-139]: the Ki on Itk and on Aurora-2 was 500 to 5000 nM in each case.

`CC(C)N1CCN(c2ccc(-c3cnc4c(-c5ccccn5)c(N)nn4c3)cn2)CC1` [Compound V-146]: the inhibition constant (Ki) was below 500 nM on Itk and 500 to 5000 nM at Aurora-2.
